Source: publication PMC12685177, “Structures of G-protein coupled receptor HCAR3 in complex with selective agonists reveal the basis for ligand recognition and selectivity” (PLOS Biology, 2025)
Values joined by “and” are separate entries in the source; they are usually repeats but may differ in a detail not shown here. Identical values can stand only once. Like-named read-outs stand apart in the source and are kept apart here.

Columns and labels:
HCAR2 N86L = assay: cAMP assay, homology-mutated HCAR2 at residue 86 (N86L); format: cell-based, human
Protocol: The cAMP levels were quantified using the cAMP-Gi kit from Perkin Elmer (model TRF0263), adhering to the manufacturer’s guidelines. […] After 36 hours, the cells, once rinsed with PBS, were treated with a stimulation buffer,including 500 μM IBMX, and incubated for 30 min in a 384-well plate maintained at 37 °C, with a seeding density of 4,000 cells per well. This step was followed by the addition of 12 μM forskolin to each well, with the incubation continuing for an additional 45 min at the same temperature. Subsequently, each well received 5 μL of the cAMP Eu-cryptate solution and the anti-cAMP-d2 solution, and the mixture was incubated for 1 hour at room temperature [45]. […] The acquired data were analyzed using GraphPad Prism version 9.0, with statistical significance set at p < 0.05. All experimental procedures were replicated three times to ensure accuracy.

wild-type HCAR3 = target: T1, wild-type HCAR3 (Homo sapiens, UniProt P49019); assay: Surface plasmon resonance measurement (Biacore X100), wild-type HCAR3; format: binding; conditions: 6O, PLA, IBC293, acifran compared
T1 construct: expression of the entire length of human HCAR3 and HCAR2 proteins; FLAG (N); 3C protease cleavage site (N); His (C); made in house

HCAR3 = conditions: cited from earlier work; for higher affinity to HCAR3 than to HCAR2: HCAR3 vs HCAR2; for affinity difference to HCAR3 compared to HCAR2: previously reported
wild-type HCAR2 [1] = target: T2, wild-type HCAR2 (Homo sapiens, UniProt Q8TDS4); format: binding; design: SPR sensorgram response, Acifran-HCAR2: unit not given here
T2 construct: expression of the entire length of human HCAR3 and HCAR2 proteins; FLAG (N); 3C protease cleavage site (N); His (C); made in house

wild-type HCAR2 [2] = format: binding, human; design: SPR sensorgram response, Acifran-HCAR2: unit not given here
HCAR3 R111A = target: T3, HCAR3 R111A (Homo sapiens, UniProt P49019, R111A); assay: cAMP assay, HCAR3 R111A mutant; format: cell-based; conditions: HCAR3 R111A vs WT
T3 construct: Full-length variants of HCAR3 and HCAR2, including specific point mutations, were incorporated into pcDNA3.1 vectors; FLAG; expressed in transfected cells
T3 sequence (P49019 whole entry R111A): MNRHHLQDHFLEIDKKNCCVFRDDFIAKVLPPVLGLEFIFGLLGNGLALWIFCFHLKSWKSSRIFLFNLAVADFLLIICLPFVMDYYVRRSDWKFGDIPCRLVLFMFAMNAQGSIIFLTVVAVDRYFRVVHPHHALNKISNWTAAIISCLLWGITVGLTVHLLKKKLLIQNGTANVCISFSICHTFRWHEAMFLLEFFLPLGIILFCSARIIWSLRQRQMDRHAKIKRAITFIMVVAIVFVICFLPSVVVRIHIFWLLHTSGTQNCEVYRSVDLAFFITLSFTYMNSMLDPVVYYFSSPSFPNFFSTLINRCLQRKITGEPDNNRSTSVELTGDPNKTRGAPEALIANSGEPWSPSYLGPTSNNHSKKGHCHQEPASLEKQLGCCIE
Protocol: Full-length variants of HCAR3 and HCAR2, including specific point mutations, were incorporated into pcDNA3.1 vectors for conducting cAMP assays. The cAMP levels were quantified using the cAMP-Gi kit from Perkin Elmer (model TRF0263), adhering to the manufacturer’s guidelines. […] Cells were transiently transfected with either wild-type or mutant HCAR3 plasmids (at a dosage of 500 ng per well in a 24-well format) using Lipofectamine 3000 (Invitrogen). After 36 hours, the cells, once rinsed with PBS, were treated with a stimulation buffer,including 500 μM IBMX, and incubated for 30 min in a 384-well plate maintained at 37 °C, with a seeding density of 4,000 cells per well. This step was followed by the addition of 12 μM forskolin to each well, with the incubation continuing for an additional 45 min at the same temperature. Subsequently, each well received 5 μL of the cAMP Eu-cryptate solution and the anti-cAMP-d2 solution, and the mixture was incubated for 1 hour at room temperature [45]. Fluorescence readings at 620/665 nm were then gathered using a multimode plate reader (Perkin Elmer EnVision 2105) [46]. The acquired data were analyzed using GraphPad Prism version 9.0, with statistical significance set at p < 0.05. All experimental procedures were replicated three times to ensure accuracy.

T2 sequence (Q8TDS4 whole entry): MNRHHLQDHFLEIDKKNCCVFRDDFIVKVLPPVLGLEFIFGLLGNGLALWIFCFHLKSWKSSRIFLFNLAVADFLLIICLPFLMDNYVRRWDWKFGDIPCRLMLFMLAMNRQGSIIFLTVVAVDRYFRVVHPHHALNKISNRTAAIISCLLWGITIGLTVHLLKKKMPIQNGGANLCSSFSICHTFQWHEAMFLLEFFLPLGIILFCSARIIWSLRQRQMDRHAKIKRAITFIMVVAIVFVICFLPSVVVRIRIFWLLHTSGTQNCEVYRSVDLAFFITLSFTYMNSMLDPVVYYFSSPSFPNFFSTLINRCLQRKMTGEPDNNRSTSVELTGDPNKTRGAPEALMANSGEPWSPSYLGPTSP
T1 sequence (P49019 whole entry): as the sequence (P49019 whole entry R111A) above, with A111R counted along it

Compound: O=C(O)c1cc(N(Cc2ccsc2)Cc2ccsc2)n[nH]1 [6O, 3-[bis(thiophen-3-ylmethyl)amino]-1H-pyrazole-5-carboxylic acid]
- cAMP response (normalized) (HCAR2 N86L; 6O-HCAR2 N86L, log[M] -3, Fig. S14B): 75.8023 and 73.3702 and 70.1872
- cAMP response (normalized) (HCAR2 N86L; 6O-HCAR2 N86L, log[M] -4, Fig. S14B): 70.0938 and 69.3817 and 72.4279
- cAMP response (normalized) (HCAR2 N86L; 6O-HCAR2 N86L, log[M] -5, Fig. S14B): 77.2869 and 68.2771 and 76.7503
- cAMP response (normalized) (HCAR2 N86L; 6O-HCAR2 N86L, log[M] -6, Fig. S14B): 87.0105 and 88.7719 and 89.0756
- cAMP response (normalized) (HCAR2 N86L; 6O-HCAR2 N86L, log[M] -7, Fig. S14B): 92.1091 and 85.2704 and 84.4838
- cAMP response (normalized) (HCAR2 N86L; 6O-HCAR2 N86L, log[M] -8, Fig. S14B): 95.6219 and 96.9675 and 90.6554
- cAMP response (normalized) (HCAR2 N86L; 6O-HCAR2 N86L, log[M] -9, Fig. S14B): 95.5893 and 94.7012 and 97.44
- cAMP response (normalized) (HCAR2 N86L; 6O-HCAR2 N86L, log[M] -10, Fig. S14B): 99.7701 and 103.601 and 102.183
- efficacy among the four ligands by surface plasmon resonance (wild-type HCAR3): highest efficacy among these four ligands
- higher affinity to HCAR3 than to HCAR2 (HCAR3): at least 100 fold
- affinity difference to HCAR3 compared to HCAR2 (HCAR3): 100- to 1,000 fold

Compound: CC1(c2ccccc2)OC(C(=O)O)=CC1=O (stereo not drawn) [Acifran, acifran]
- cAMP response (normalized) (HCAR2 N86L; Acifran-HCAR2 N86L, log[M] -3, Fig. S12E): 51.1208 and 61.7941 and 63.8756
- cAMP response (normalized) (HCAR2 N86L; Acifran-HCAR2 N86L, log[M] -4, Fig. S12E): 60.2042 and 54.7738 and 52.0221
- cAMP response (normalized) (HCAR2 N86L; Acifran-HCAR2 N86L, log[M] -5, Fig. S12E): 64.2273 and 75.5651 and 74.1332
- cAMP response (normalized) (HCAR2 N86L; Acifran-HCAR2 N86L, log[M] -6, Fig. S12E): 84.0136 and 74.6749
- cAMP response (normalized) (HCAR2 N86L; Acifran-HCAR2 N86L, log[M] -7, Fig. S12E): 89.2308 and 93.0182
- cAMP response (normalized) (HCAR2 N86L; Acifran-HCAR2 N86L, log[M] -8, Fig. S12E): 92.6771 and 91.0418
- cAMP response (normalized) (HCAR2 N86L; Acifran-HCAR2 N86L, log[M] -9, Fig. S12E): 100.347 and 91.8401 and 97.0308
- cAMP response (normalized) (HCAR2 N86L; Acifran-HCAR2 N86L, log[M] -10, Fig. S12E): 103.679
- SPR sensorgram response, Acifran-HCAR2 (wild-type HCAR2 [1]; acifran concentration 0.025 (unit not given), c2 value 159.6 (head printed log[M])): -15.5002
- SPR sensorgram response, Acifran-HCAR2 (wild-type HCAR2 [1]; acifran concentration 0.025 (unit not given), c2 value 160.6 (head printed log[M])): -15.3633
- SPR sensorgram response, Acifran-HCAR2 (wild-type HCAR2 [1]; acifran concentration 0.05 (unit not given), c2 value 159.6 (head printed log[M])): -16.3767
- SPR sensorgram response, Acifran-HCAR2 (wild-type HCAR2 [1]; acifran concentration 0.1 (unit not given), c2 value 159.6 (head printed log[M])): -16.3472
- SPR sensorgram response, Acifran-HCAR2 (wild-type HCAR2 [1]; acifran concentration 0.4 (unit not given), c2 value 159.6 (head printed log[M])): -15.8456
- affinity difference acifran-HCAR2 vs acifran-HCAR3 (wild-type HCAR2 [2]): ~ 100 fold

Compound: CC(C)n1nnc2cc(C(=O)O)ccc21 [IBC293, 1-propan-2-ylbenzotriazole-5-carboxylic acid]
- effect of R111A mutation on agonist action at HCAR3 (cAMP assay) (HCAR3 R111A): barely interfered HCAR3 activation
- cAMP response (normalized) (HCAR2 N86L; IBC293-HCAR2 N86L, log[M] -3, Fig. S14C): 79.8778 and 75.4919 and 74.9151
- cAMP response (normalized) (HCAR2 N86L; IBC293-HCAR2 N86L, log[M] -4, Fig. S14C): 76.5789 and 72.1623 and 89.1848
- cAMP response (normalized) (HCAR2 N86L; IBC293-HCAR2 N86L, log[M] -5, Fig. S14C): 83.4897 and 75.4819 and 86.0148
- cAMP response (normalized) (HCAR2 N86L; IBC293-HCAR2 N86L, log[M] -6, Fig. S14C): 92.474 and 94.1647 and 90.5718
- cAMP response (normalized) (HCAR2 N86L; IBC293-HCAR2 N86L, log[M] -7, Fig. S14C): 100.025 and 101.905 and 97.6855
- cAMP response (normalized) (HCAR2 N86L; IBC293-HCAR2 N86L, log[M] -8, Fig. S14C): 96.4886 and 103.749 and 98.8962
- cAMP response (normalized) (HCAR2 N86L; IBC293-HCAR2 N86L, log[M] -9, Fig. S14C): 106.585 and 93.0489 and 96.2716
- cAMP response (normalized) (HCAR2 N86L; IBC293-HCAR2 N86L, log[M] -10, Fig. S14C): 101.501 and 101.566 and 98.9795
- higher affinity to HCAR3 than to HCAR2 (HCAR3): at least 100 fold
- affinity difference to HCAR3 compared to HCAR2 (HCAR3): 100- to 1,000 fold

Compound: O=C(O)C(O)Cc1ccccc1 [PLA, D-phenyllactic acid]
- cAMP response (normalized) (HCAR2 N86L; PLA-HCAR2 N86L, log[M] -3, Fig. S14D): 52.7872 and 58.3693 and 59.0285
- cAMP response (normalized) (HCAR2 N86L; PLA-HCAR2 N86L, log[M] -4, Fig. S14D): 77.5234 and 72.7009 and 60.409
- cAMP response (normalized) (HCAR2 N86L; PLA-HCAR2 N86L, log[M] -5, Fig. S14D): 76.3988 and 76.6951 and 70.3605
- cAMP response (normalized) (HCAR2 N86L; PLA-HCAR2 N86L, log[M] -6, Fig. S14D): 100.996 and 89.6375 and 92.8244
- cAMP response (normalized) (HCAR2 N86L; PLA-HCAR2 N86L, log[M] -7, Fig. S14D): 92.0146 and 97.7923 and 90.5493
- cAMP response (normalized) (HCAR2 N86L; PLA-HCAR2 N86L, log[M] -8, Fig. S14D): 94.5951 and 98.3127 and 96.313
- cAMP response (normalized) (HCAR2 N86L; PLA-HCAR2 N86L, log[M] -9, Fig. S14D): 99.4667 and 89.0551 and 95.4388
- cAMP response (normalized) (HCAR2 N86L; PLA-HCAR2 N86L, log[M] -10, Fig. S14D): 94.992 and 94.7429 and 103.357
- affinity difference to HCAR3 compared to HCAR2 (HCAR3): 100- to 1,000 fold
